Reference: US20130029970A1 (priority 2009, published 2013)

Legend:
human CB1 receptors = target: T1, human CB1 receptors (Homo sapiens, UniProt P21554); assay: cAMP assay in HEK-293 cells, hCB1 agonist; format: cell-based; conditions: inhibition of forskolin-stimulated cAMP, HEK-293 cells; for EC50: read-out: hCB1 EC50 (cAMP ag)
T1 construct: (cDNA clone) CNR01L000
Summary of the method: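 Stable hCB1 HEK-293 cells suspended in HBSS with 10 mM HEPES and 0.1% fatty acid-free BSA, incubated 30 min at 37° C. with compound plus forskolin (90 uM in the 3× compound solution). Lysed cAMP measured by enzyme-fragment kit; EC50 = 50% inhibition of forskolin-stimulated cAMP (forskolin maximum = 100%), sigmoidal fit.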

human CB1 (hCB1) = target: T2, human CB1 (hCB1) (Homo sapiens, UniProt P21554); assay: 35S GTPγS binding assay, hCB1 agonist; format: biochemical; conditions: GTPγS agonist, HEK-293 membranes; read-out: hCB1 EC50 (GTPyS ag)
T2 construct: (cDNA clone) CNR01L000
T2 sequence (P21554 whole entry): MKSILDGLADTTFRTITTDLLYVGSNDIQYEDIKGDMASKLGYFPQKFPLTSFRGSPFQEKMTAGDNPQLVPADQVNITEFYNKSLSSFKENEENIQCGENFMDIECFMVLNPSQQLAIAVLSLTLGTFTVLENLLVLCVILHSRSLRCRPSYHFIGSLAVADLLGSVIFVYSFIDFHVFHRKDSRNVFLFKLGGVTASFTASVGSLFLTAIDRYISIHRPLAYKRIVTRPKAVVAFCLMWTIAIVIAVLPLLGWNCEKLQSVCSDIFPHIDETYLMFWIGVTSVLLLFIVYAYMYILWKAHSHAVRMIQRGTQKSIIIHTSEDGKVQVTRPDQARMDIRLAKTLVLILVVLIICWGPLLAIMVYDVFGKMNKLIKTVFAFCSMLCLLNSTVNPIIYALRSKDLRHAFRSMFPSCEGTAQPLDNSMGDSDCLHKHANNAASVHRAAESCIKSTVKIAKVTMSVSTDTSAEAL

[1] = target: T3, recombinant human cannabinoid receptor CB1 (Homo sapiens, UniProt P21554); assay: Cannabinoid receptor radioligand binding assay, [3H]-CP 55,940 displacement, hCB1
T3 construct: (cDNA clone) CNR01L000
T3 sequence (P21554 whole entry): as above
Summary of the method: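 Membranes from HEK-293 cells stably expressing human CB1, 2-10 μg protein, incubated 90 min at room temperature with 0.5 nM [3H]-CP 55,940 in Tris-HCl pH 7.5, MgCl2, EDTA and 0.1% fatty-acid-free BSA. Bound radioactivity counted after rapid filtration; nonspecific binding defined with 1 μM unlabeled CP 55,940.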

T1 sequence (P21554 whole entry): as above

SMILES	hCB1 EC50 (cAMP ag, nM) (human CB1 receptors)	EC50 (human CB1 (hCB1))	IC50 [1]	EC50 (human CB1 receptors)
Cc1cc2cc(C(=O)c3cccc(Cl)c3Cl)sc2n1CCc1ccccc1 [Compound 30, (2,3-Dichlorophenyl)(5-methyl-6-phenethyl-6H-thieno[2,3-b]pyrrol-2-yl)methanone]	NS (NS means “Not Significant,” which means less than 30% agonist activity when compared to the positive control.)	100 to 1000 nM	100 to 1000 nM	–
Cc1cc2cc(C(=O)c3cccc(Cl)c3Cl)sc2n1CCN1CCN(C)CC1 [Compound 33, (2,3-Dichlorophenyl)(5-methyl-6-(2-(4-methylpiperazin-1-yl)ethyl)-6H-thieno[2,3-b]pyrrol-2-yl)methanone]	NS (NS means “Not Significant,” which means less than 30% agonist activity when compared to the positive control.)	< 100 nM	> 10000 nM	–
Cc1cc2cc(C(=O)c3cccc(Cl)c3Cl)sc2n1S(=O)(=O)N1CCOCC1 [Compound 45, (2,3-Dichlorophenyl)(5-methyl-6-(morpholinosulfonyl)-6H-thieno[2,3-b]pyrrol-2-yl)methanone]	NS (NS means “Not Significant,” which means less than 30% agonist activity when compared to the positive control.)	100 to 1000 nM	< 100 nM	–
Cc1cc2cc(C(=O)c3cccc(Cl)c3Cl)sc2n1S(=O)(=O)CC1CCOCC1 [Compound 46, (2,3-Dichlorophenyl)(5-methyl-6-((tetrahydro-2H-pyran-4-yl)methylsulfonyl)-6H-thieno[2,3-b]pyrrol-2-yl)methanone]	–	< 100 nM	< 100 nM	< 100 nM
COc1ccc(C(=O)c2cc3cc(C)n(S(=O)(=O)N4CCOCC4)c3s2)cc1 [Compound 53, (4-methoxyphenyl)(5-methyl-6-(morpholinosulfonyl)-6H-thieno[2,3-b]pyrrol-2-yl)methanone]	–	100 to 1000 nM	< 100 nM	< 100 nM
COc1ccc(C(=O)c2cc3cc(C)n(S(=O)(=O)CC4CCOCC4)c3s2)cc1 [Compound 57, (4-Methoxyphenyl)(5-methyl-6-((tetrahydro-2H-pyran-4-yl)methylsulfonyl)-6H-thieno[2,3-b]pyrrol-2-yl)methanone]	–	< 100 nM	< 100 nM	< 100 nM
COc1ccc(C(=O)c2cc3cc(C)n(CC4CCOCC4)c3s2)cc1 [Compound 62, (4-Methoxyphenyl)(5-methyl-6-((tetrahydro-2H-pyran-4-yl)methyl)-6H-thieno[2,3-b]pyrrol-2-yl)methanone]	–	100 to 1000 nM	1000 to 10000 nM	100 to 1000 nM
COc1ccc(C(=O)c2cc3cc(C)n(CCN4CCCCC4)c3s2)cc1 [Compound 78, (4-Methoxyphenyl)(5-methyl-6-(2-(piperidin-1-yl)ethyl)-6H-thieno[2,3-b]pyrrol-2-yl)methanone]	–	< 100 nM	1000 to 10000 nM	1000 to 10000 nM
COc1ccc(C(=O)c2cc3cc(C)n(CCC4CCOCC4)c3s2)cc1 [Compound 82, (4-Methoxyphenyl)(5-methyl-6-(2-(tetrahydro-2H-pyran-4-yl)ethyl)-6H-thieno[2,3-b]pyrrol-2-yl)methanone]	–	100 to 1000 nM	100 to 1000 nM	100 to 1000 nM
COc1ccc(C(=O)c2cc3cc(C)n(CCN4CCOCC4)c3s2)c(C(F)(F)F)c1 [Compound 119, (4-Methoxy-2-(trifluoromethyl)phenyl)(5-methyl-6-(2-morpholinoethyl)-6H-thieno[2,3-b]pyrrol-2-yl)methanone]	–	100 to 1000 nM	1000 to 10000 nM	100 to 1000 nM
COc1ccc(C(=O)c2cc3cc(C)n(CCN4CCOCC4)c3s2)c(OC)c1 [Compound 120, (2,4-Dimethoxyphenyl)(5-methyl-6-(2-morpholinoethyl)-6H-thieno[2,3-b]pyrrol-2-yl)methanone]	–	100 to 1000 nM	100 to 1000 nM	100 to 1000 nM
CCOc1ccc(C(=O)c2cc3cc(C)n(CCN4CCOCC4)c3s2)c(Cl)c1 [Compound 126, (2-chloro-4-ethoxyphenyl)(5-methyl-6-(2-morpholinoethyl)-6H-thieno[2,3-b]pyrrol-2-yl)methanone]	–	1000 to 10000 nM	100 to 1000 nM	1000 to 10000 nM
Cc1cc2cc(C(=O)c3ccc(C#N)cc3)sc2n1CCN1CCOCC1 [Compound 129, 4-(5-methyl-6-(2-morpholinoethyl)-6H-thieno[2,3-b]pyrrole-2-carbonyl)benzonitrile]	NS (NS means “Not Significant,” which means less than 30% agonist activity when compared to the positive control.)	–	1000 to 10000 nM	–
COc1cc(F)ccc1C(=O)c1cc2cc(C)n(CCN3CCOCC3)c2s1 [Compound 133, (4-fluoro-2-methoxyphenyl)(5-methyl-6-(2-morpholinoethyl)-6H-thieno[2,3-b]pyrrol-2-yl)methanone]	–	–	100 to 1000 nM	100 to 1000 nM
Cc1cc2cc(C(=O)c3ccc(F)cc3F)sc2n1CCN1CCOCC1 [Compound 135, (2,4-difluorophenyl)(5-methyl-6-(2-morpholinoethyl)-6H-thieno[2,3-b]pyrrol-2-yl)methanone]	NS (NS means “Not Significant,” which means less than 30% agonist activity when compared to the positive control.)	–	1000 to 10000 nM	–
COc1ccc(C(=O)c2cc3cc(C)n(CCN4CCOCC4)c3s2)c(C)n1 [Compound 136, (6-methoxy-2-methylpyridin-3-yl)(5-methyl-6-(2-morpholinoethyl)-6H-thieno[2,3-b]pyrrol-2-yl)methanone]	NS (NS means “Not Significant,” which means less than 30% agonist activity when compared to the positive control.)	–	1000 to 10000 nM	–
COc1ccc(C(O)(c2cc3cc(C)n(CCN4CCOCC4)c3s2)C(F)(F)F)cc1 (centres unmarked) [Compound 138, 2,2,2-trifluoro-1-(4-methoxyphenyl)-1-(5-methyl-6-(2-morpholinoethyl)-6H-thieno[2,3-b]pyrrol-2-yl)ethanol]	NS (NS means “Not Significant,” which means less than 30% agonist activity when compared to the positive control.)	–	1000 to 10000 nM	–
COc1ccc(C(=O)c2cc3cc(C)n(S(=O)(=O)CCN4CCOCC4)c3s2)cc1 [Compound 139, (4-methoxyphenyl)(5-methyl-6-(2-morpholinoethylsulfonyl)-6H-thieno[2,3-b]pyrrol-2-yl)methanone]	–	100 to 1000 nM	100 to 1000 nM	100 to 1000 nM
COc1ccc(C(c2cc3cc(C)n(CCN4CCOCC4)c3s2)C(F)(F)F)cc1 (centres unmarked) [Compound 141, 4-(2-(5-methyl-2-(2,2,2-trifluoro-1-(4-methoxyphenyl)ethyl)-6H-thieno[2,3-b]pyrrol-6-yl)ethyl)morpholine]	NS (NS means “Not Significant,” which means less than 30% agonist activity when compared to the positive control.)	–	1000 to 10000 nM	–
COc1ccc(C(=O)c2cc3cc(C)n(CCN4CCC(OC)C4)c3s2)cn1 (centres unmarked) [Compound 147, (6-methoxypyridin-3-yl)(6-(2-(3-methoxypyrrolidin-1-yl)ethyl)-5-methyl-6H-thieno[2,3-b]pyrrol-2-yl)methanone]	NS (NS means “Not Significant,” which means less than 30% agonist activity when compared to the positive control.)	–	> 10000 nM	–
